Positions count from the first letter of the chain named.
Tests used:
human NNMT [1] = target: T1, human NNMT (Homo sapiens, UniProt P40261); experiment: Fluorescence-based NNMT enzymatic assay (human enzyme); type: biochemical; details: for IC50: read-out: hNNMT IC50
T1 sequence (P40261 1-264): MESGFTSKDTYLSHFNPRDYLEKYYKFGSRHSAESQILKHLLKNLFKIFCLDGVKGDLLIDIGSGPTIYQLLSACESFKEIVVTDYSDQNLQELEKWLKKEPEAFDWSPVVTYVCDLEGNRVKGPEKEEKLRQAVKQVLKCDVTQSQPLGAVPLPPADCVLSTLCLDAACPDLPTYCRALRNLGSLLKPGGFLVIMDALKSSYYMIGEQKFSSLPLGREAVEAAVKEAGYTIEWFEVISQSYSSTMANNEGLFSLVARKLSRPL
Protocol: (§1) Experimental Procedures S2: Fluorescence-based NNMT enzymatic assay
(§2) NNMT activity was measured by fluorescence based assay. The product MNA formed in the reaction reacts with acetophenone in the presence of KOH and formic acid and forms a fluorescent product 2, 7- naphthyridine. The fluorescence intensity measured with excitation at 375nm and emission at 430nm. Inhibitors were screened using human, mouse and monkey NNMT enzymes. Different concentrations of inhibitors were pre-incubated along with 5ng/well of human NNMT enzyme and 3.42ng/well of mouse NNMT enzyme for 30 minutes at room temperature. Reaction was initiated by addition of SAM and nicotinamide mixture (7µM, 20µM, 8µM SAM and 6µM, 20µM, 9µM nicotinamide for human, mouse and monkey NNMT assays respectively) and incubated for 60 minutes at 37°C. The final assay reaction mixture contained a buffer of 100mM Tris Hcl pH 7.5, 0.04% BSA, 2mM Dithiothreitol and 1% DMSO. The reaction was terminated by addition of Ethanol: Acetophenone mix (75% ethanol: 25% Acetophenone) and 5M potassium Hydroxide prepared with 50% Ethanol. The reaction was incubated for 15 minutes followed by addition of 100µl of 60% formic acid and further incubation for 60 minutes at room temperature. A fluorescent product 2, 7- naphthyridine was measured in a Tecan reader with excitation at 375nm and emission at 430nm. The IC50 values were determined by fitting the inhibition curves (percent inhibition versus inhibitor concentration) using a four parametric sigmoidal dose response in graph pad prism. […]

mouse NNMT = target: T2, mouse NNMT (Mus musculus, UniProt O55239); experiment: Fluorescence-based NNMT enzymatic assay (mouse enzyme); type: biochemical; details: read-out: mNNMT IC50
T2 sequence (O55239 1-264): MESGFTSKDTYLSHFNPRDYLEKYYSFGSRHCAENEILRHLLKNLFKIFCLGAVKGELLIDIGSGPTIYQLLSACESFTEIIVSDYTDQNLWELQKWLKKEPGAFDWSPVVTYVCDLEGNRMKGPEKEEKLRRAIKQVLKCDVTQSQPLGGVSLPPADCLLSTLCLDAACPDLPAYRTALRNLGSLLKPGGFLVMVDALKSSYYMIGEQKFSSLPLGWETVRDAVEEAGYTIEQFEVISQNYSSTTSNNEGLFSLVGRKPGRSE
Protocol: as §1, §2

human NNMT [2] = target: T3, human NNMT (Homo sapiens, UniProt P40261, E101A/E103A/K100A); experiment: Thermal shift (DSF) measurement of NNMT stabilisation; type: binding; details: together with cofactor (reaction product) SAH
T3 construct: His-tag; thrombin protease site; made in house
T3 sequence (P40261 1-264 K100A/E101A/E103A): T1 sequence (P40261 1-264) with K100A, E101A, E103A

[3] = Metabolic stability in liver microsomes (species not specified); type: in vitro ADME
Protocol: Experimental Procedures S3: Metabolic stability in human and mouse liver microsomes
These profiling studies were carried out as described in Mullangi R. et. al. Preclinical assessment of
ulixertinib, a novel ERK1/2 inhibitor, ADMET & DMPK, 2017, 212-223;

CYP3A4 = CYP3A4 (Homo sapiens, UniProt P08684); experiment: CYP3A4 inhibition; type: in vitro ADME
Chain of CYP3A4 (P08684 whole entry, species assumed): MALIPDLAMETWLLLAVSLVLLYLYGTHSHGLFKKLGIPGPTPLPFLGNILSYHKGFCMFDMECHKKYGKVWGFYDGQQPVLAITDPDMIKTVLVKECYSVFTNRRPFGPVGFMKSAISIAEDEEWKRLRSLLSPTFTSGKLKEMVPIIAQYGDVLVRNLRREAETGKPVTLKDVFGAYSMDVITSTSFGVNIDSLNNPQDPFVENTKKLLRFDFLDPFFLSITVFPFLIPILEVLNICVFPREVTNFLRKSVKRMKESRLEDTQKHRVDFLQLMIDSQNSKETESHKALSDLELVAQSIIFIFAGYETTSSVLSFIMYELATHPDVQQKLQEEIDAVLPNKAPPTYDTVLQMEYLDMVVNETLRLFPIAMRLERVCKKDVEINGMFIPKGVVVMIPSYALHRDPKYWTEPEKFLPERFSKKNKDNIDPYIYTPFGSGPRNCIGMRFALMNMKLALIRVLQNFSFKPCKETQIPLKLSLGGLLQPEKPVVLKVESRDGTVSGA

SMILES	mode of inhibition (human NNMT [1]; competition with substrates nicotinamide / SAM)	IC50 (human NNMT [1])	IC50 (mouse NNMT)	stabilization in DSF experiments, in words (human NNMT [2])	hNNMT potency, in words (human NNMT [1])	metabolic stability, in words [3]	CYP3A4 inhibition liabilities (CYP3A4)
N=c1sc2cccc3c2n1CCC3 [Compound 2]	competitive inhibitors either of nicotinamide alone	1300 nM	2300 nM	strong additive stabilization			
CN1Cc2cccc3c2N(CCC3)C1=N [Compound 4]		70 nM	100 nM		two-digit nano-molar potency	in an acceptable range	no CYP3A4 inhibition liabilities were detected

Reference: publication PMC7918612, “Novel Inhibitors of Nicotinamide-N-Methyltransferase for the Treatment of Metabolic Disorders” (Molecules, 2021)
